# Results published in PubChem BioAssay (NCI).
#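 Compound exposure: 48 hours, 5 concentrations, 96-well plates. Abbreviation: GI50, concentration required for 50% inhibition of growth. TGI: total growth inhibition.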
# Columns and labels:
# Assay in all cases: NCI-60 cell line screen, 48 h
# [1] = tested on: 786-0 renal
# [2] = tested on: SK-MEL-5 melanoma
# [3] = tested on: RXF 393 renal
# [4] = tested on: A549 NSCLC
# [5] = tested on: MALME-3M melanoma
# [6] = tested on: OVCAR-8 ovarian
# [7] = tested on: HCC-2998 colon
# [8] = tested on: UACC-62 melanoma
# [9] = tested on: OVCAR-3 ovarian
# [10] = tested on: SN12C renal
# [11] = tested on: SK-OV-3 ovarian
# [12] = tested on: HT29 colon
# [13] = tested on: UO-31 renal
# [14] = tested on: LOX IMVI melanoma
# [15] = tested on: NCI-H460 lung
# [16] = tested on: MOLT-4 leukemia
# [17] = tested on: OVCAR-4 ovarian
# [18] = tested on: K-562 leukemia
# [19] = tested on: NCI-H23 lung
# [20] = tested on: HOP-62 NSCLC
# [21] = tested on: CCRF-CEM leukemia
# [22] = tested on: NCI-H522 lung
# [23] = tested on: SW-620 colon
# [24] = tested on: M19-MEL melanoma
# [25] = tested on: SF-268 CNS
# [26] = tested on: SNB-19 CNS
# [27] = tested on: DLD-1 colon
# [28] = tested on: U251 CNS
# [29] = tested on: SR leukemia
# [30] = tested on: HCT-15 colon
# [31] = tested on: SF-295 CNS
# [32] = tested on: SF-539 CNS
# [33] = tested on: DMS 114 small cell lung
# [34] = tested on: SNB-75 CNS
# [35] = tested on: RPMI-8226 leukemia
# [36] = tested on: HCT-116 colon
# [37] = tested on: ACHN renal
# [38] = tested on: HL-60(TB) leukemia
# [39] = tested on: OVCAR-5 ovarian
# [40] = tested on: DMS 273 small cell lung
# [41] = tested on: IGROV1 ovarian
# [42] = tested on: COLO 205 colon
# [43] = tested on: HOP-18 NSCLC
# [44] = tested on: SK-MEL-2 melanoma
# [45] = tested on: TK-10 renal
# [46] = tested on: KM12 colon
# [47] = tested on: LXFL 529 NSCLC
# [48] = tested on: SK-MEL-28 melanoma
# [49] = tested on: M14 melanoma
# [50] = tested on: HOP-92 NSCLC
# [51] = tested on: CAKI-1 renal
# [52] = tested on: KM20L2 colon
# [53] = tested on: A498 renal
# [54] = tested on: UACC-257 melanoma
# [55] = tested on: NCI-H226 lung
compound,measurement,setting,value
NC1=NS(=O)(=O)Nc2nc(-c3ccc([N+](=O)[O-])cc3)[nH]c21,TGI,[1],> 100 µM
same,TGI,[2],> 100 µM
same,TGI,[3],> 100 µM
same,TGI,[4],> 100 µM
same,TGI,[5],> 100 µM
same,TGI,[6],> 100 µM
same,TGI,[7],> 100 µM
same,TGI,[8],> 100 µM
same,TGI,[9],> 100 µM
same,TGI,[10],> 100 µM
same,TGI,[11],> 100 µM
same,TGI,[12],> 100 µM
same,TGI,[13],> 100 µM
same,TGI,[14],> 100 µM
same,TGI,[15],> 100 µM
same,TGI,[16],> 100 µM
same,TGI,[17],> 100 µM
same,TGI,[18],> 100 µM
same,TGI,[19],> 100 µM
same,TGI,[20],> 100 µM
same,TGI,[21],> 100 µM
same,TGI,[22],> 100 µM
same,TGI,[23],> 100 µM
same,TGI,[24],> 100 µM
same,TGI,[25],> 100 µM
same,TGI,[26],> 100 µM
same,TGI,[27],> 100 µM
same,TGI,[28],> 100 µM
same,TGI,[29],> 100 µM
same,TGI,[30],> 100 µM
same,TGI,[31],> 100 µM
same,TGI,[32],> 100 µM
same,TGI,[33],> 100 µM
same,TGI,[34],> 100 µM
same,TGI,[35],> 100 µM
same,TGI,[36],> 100 µM
same,TGI,[37],> 100 µM
same,TGI,[38],> 100 µM
same,TGI,[39],> 100 µM
same,TGI,[40],> 100 µM
same,TGI,[41],> 100 µM
same,TGI,[42],> 100 µM
same,TGI,[43],> 100 µM
same,TGI,[44],> 100 µM
same,TGI,[45],> 100 µM
same,TGI,[46],> 100 µM
same,TGI,[47],> 100 µM
same,TGI,[48],> 100 µM
same,TGI,[49],> 100 µM
same,TGI,[50],> 100 µM
same,TGI,[51],> 100 µM
C1C[OH+]CCNCC[OH+]CC[OH+]CCN1.[Cl-].[Pt+4],GI50,[1],> 100 µM
same,TGI,[1],> 100 µM
same,GI50,[2],> 100 µM
same,TGI,[2],> 100 µM
same,GI50,[3],> 100 µM
same,TGI,[3],> 100 µM
same,GI50,[4],> 100 µM
same,TGI,[4],> 100 µM
same,GI50,[5],> 100 µM
same,TGI,[5],> 100 µM
same,GI50,[6],> 100 µM
same,TGI,[6],> 100 µM
same,GI50,[7],> 100 µM
same,TGI,[7],> 100 µM
same,GI50,[8],> 100 µM
same,TGI,[8],> 100 µM
same,GI50,[52],> 100 µM
same,TGI,[52],> 100 µM
same,GI50,[9],> 100 µM
same,TGI,[9],> 100 µM
same,GI50,[10],> 100 µM
same,TGI,[10],> 100 µM
same,GI50,[11],> 100 µM
same,TGI,[11],> 100 µM
same,GI50,[12],> 100 µM
same,TGI,[12],> 100 µM
same,GI50,[13],> 100 µM
same,TGI,[13],> 100 µM
same,GI50,[14],> 100 µM
same,TGI,[14],> 100 µM
same,GI50,[15],> 100 µM
same,TGI,[15],> 100 µM
same,GI50,[16],> 100 µM
same,TGI,[16],> 100 µM
same,GI50,[17],> 100 µM
same,TGI,[17],> 100 µM
same,GI50,[18],> 100 µM
same,TGI,[18],> 100 µM
same,GI50,[19],> 100 µM
same,TGI,[19],> 100 µM
same,GI50,[20],> 100 µM
same,TGI,[20],> 100 µM
same,GI50,[21],51.4 µM
same,TGI,[21],> 100 µM
same,GI50,[22],> 100 µM
same,TGI,[22],> 100 µM
same,GI50,[23],> 100 µM
same,TGI,[23],> 100 µM
same,GI50,[53],> 100 µM
same,TGI,[53],> 100 µM
same,GI50,[25],> 100 µM
same,TGI,[25],> 100 µM
same,GI50,[26],> 100 µM
same,TGI,[26],> 100 µM
same,GI50,[27],> 100 µM
same,TGI,[27],> 100 µM
same,GI50,[28],> 100 µM
same,TGI,[28],> 100 µM
same,GI50,[30],> 100 µM
same,TGI,[30],> 100 µM
same,GI50,[31],> 100 µM
same,TGI,[31],> 100 µM
same,GI50,[32],> 100 µM
same,TGI,[32],> 100 µM
same,GI50,[34],> 100 µM
same,TGI,[34],> 100 µM
same,GI50,[54],> 100 µM
same,TGI,[54],> 100 µM
same,GI50,[35],> 100 µM
same,TGI,[35],> 100 µM
same,GI50,[36],> 100 µM
same,TGI,[36],> 100 µM
same,GI50,[37],> 100 µM
same,TGI,[37],> 100 µM
same,GI50,[38],> 100 µM
same,TGI,[38],> 100 µM
same,GI50,[55],> 100 µM
same,TGI,[55],> 100 µM
same,GI50,[40],> 100 µM
same,TGI,[40],> 100 µM
same,GI50,[41],> 100 µM
same,TGI,[41],> 100 µM
same,GI50,[42],> 100 µM
same,TGI,[42],> 100 µM
same,GI50,[43],> 100 µM
same,TGI,[43],> 100 µM
same,GI50,[44],> 100 µM
same,TGI,[44],> 100 µM
same,GI50,[45],> 100 µM
same,TGI,[45],> 100 µM
same,GI50,[46],> 100 µM
same,TGI,[46],> 100 µM
same,GI50,[47],> 100 µM
same,TGI,[47],> 100 µM
same,GI50,[48],> 100 µM
same,TGI,[48],> 100 µM
same,GI50,[49],> 100 µM
same,TGI,[49],> 100 µM
same,GI50,[50],> 100 µM
same,TGI,[50],> 100 µM
same,GI50,[51],> 100 µM
same,TGI,[51],> 100 µM
